The assay has as its system MX-1 breast xenograft, nude mice, tumor weight T/C. The assay can be described thus: NCI In Vivo Anticancer Drug Screen. Data for tumor model Human Mammary Carcinoma MX-1 Xenograft (intrarenal inoculation) in NU/NU Swiss (nude) mice. As to conditions: endpoint: mean tumor weight change, higher = larger tumour. Summed up: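 Activity is given as a ratio, with each measurement in the compound-treated arm divided by the matching measurement in vehicle-dosed controls. Tumour size or survival serves as the measured parameter.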

[1] abbreviates: dose: 600.0 mg/kg/injection, schedule: Q04DX003 (sc), vehicle: Klucel (hydroxypropylcellulose) (HPC).
[2] abbreviates: dose: 150.0 mg/kg/injection, schedule: Q04DX003 (sc), vehicle: saline with Tween-80.
Where [3] appears, read: dose: 300.0 mg/kg/injection, schedule: Q04DX003 (sc), vehicle: saline with Tween-80.
Where [4] appears, read: dose: 600.0 mg/kg/injection, schedule: Q04DX003 (sc), vehicle: saline with Tween-80.
Setting [5] is: dose: 300.0 mg/kg/injection, schedule: Q04DX003 (sc), vehicle: suspension in saline.

We go through 19 compounds from PubChem BioAssay AID296 (DTP/NCI, 2004).

Several values for one entry are separate records, joined by “and”; a condition that tells them apart may be missing. Equal values may be shown once. Results filed as inconclusive are left out.

Regarding `Cc1cc(Nc2ccc3c(c2)OCO3)c2cc3c(cc2n1)OCO3`, the T/C reads like this: (dose: 300.0 mg/kg/injection, schedule: Q04DX003 (sc), vehicle: Klucel (hydroxypropylcellulose) (HPC)) 61 % of control; under setting [1], 81 % of control; (dose: 1200.0 mg/kg/injection, schedule: Q04DX003 (sc), vehicle: Klucel (hydroxypropylcellulose) (HPC)) 81 % of control; (dose: 2400.0 mg/kg/injection, schedule: Q04DX003 (sc), vehicle: Klucel (hydroxypropylcellulose) (HPC)) 92 % of control.
In the case of `CCOC(=O)/N=[N+](\[O-])c1ccccc1`, the T/C (dose: 37.5 mg/kg/injection, schedule: Q04DX003 (ip), vehicle: saline with Tween-80) was 110 % of control.
In the case of `CCCCCCCCCCCCCC#CC(=O)O`, the T/C is, setting by setting: (dose: 75.0 mg/kg/injection, schedule: Q04DX003 (sc), vehicle: saline with Tween-80) 87 % of control; under setting [2], 94 % of control; under setting [3], 92 % of control; under setting [4], 77 % of control.
In the case of `N#Cc1ccc(NN=O)nc1`, the T/C is, setting by setting: (dose: 12.5 mg/kg/injection, schedule: Q04DX003 (ip), vehicle: water) 110 % of control; (dose: 25.0 mg/kg/injection, schedule: Q04DX003 (ip), vehicle: water) 18 % of control; (dose: 50.0 mg/kg/injection, schedule: Q04DX003 (ip), vehicle: water) 18 % of control; (dose: 100.0 mg/kg/injection, schedule: Q04DX003 (ip), vehicle: water) 20 % of control.
Take `COc1ccc(/C=C/C(=O)c2cc(C(=O)O)c(OC)cc2OC)cc1OC`: the T/C under setting [5] was 99 % of control.
With `C/C=C/C=C/c1cc2cc3c(c(O)c2c(=O)[nH]1)C1(CC3)C(O)=c2c(=O)c3c(=O)cc(OC)c(=O)c=3c(=O)c2=C1O` (configuration not stated), the T/C is 122 % of control (dose: 8.0 mg/kg/injection, schedule: Q01DX010 (sc), vehicle: DMSO) and 91 % of control (dose: 16.0 mg/kg/injection, schedule: Q01DX010 (sc), vehicle: DMSO).
For `CCCCNC(C)C1(O)Cc2c(O)c3c(c(O)c2C(OC2CC(N)C(O)C(C)O2)C1)C(=O)c1c(OC)cccc1C3=O` (configuration not stated), the T/C reads like this: (dose: 100.0 mg/kg/injection, schedule: Q01DX010 (sc), vehicle: water) 115 % of control; (dose: 200.0 mg/kg/injection, schedule: Q01DX010 (sc), vehicle: water) 75 % of control.
As to `C(=N/NC1=NCCN1)/c1c2ccccc2c(/C=N\NC2=NCCN2)c2ccccc12`, the T/C is 11 % of control and 25 % of control (dose: 75.0 mg/kg/injection, schedule: Q04DX003 (sc), vehicle: suspension in saline); 17 % of control and 18 % of control (dose: 150.0 mg/kg/injection, schedule: Q04DX003 (sc), vehicle: suspension in saline).
On to `Cc1c(N)nc([C@H](CC(N)=O)NC[C@H](N)C(N)=O)nc1C(=O)N[C@H](C(=O)N[C@H](C)[C@@H](O)CC(=O)N[C@H](C(=O)NC(O[C@@H]1O[C@@H](C)[C@@H](N)[C@@H](O)[C@H]1O)C(O)c1nc(-c2nc(C(=O)NCCCCN)cs2)cs1)[C@@H](C)O)[C@@H](O[C@@H]1O[C@@H](CO)[C@@H](O)[C@H](O)[C@@H]1O[C@H]1O[C@H](CO)[C@@H](O)[C@H](OC(N)=O)[C@@H]1O)c1c[nH]cn1` (some centres not stated), for which the T/C reads like this: (dose: 4.0 mg/kg/injection, schedule: Q04DX003 (sc), vehicle: saline) 120 % of control; (dose: 8.0 mg/kg/injection, schedule: Q04DX003 (sc), vehicle: saline) 64 % of control; (dose: 16.0 mg/kg/injection, schedule: Q04DX003 (sc), vehicle: saline) 64 % of control; (dose: 32.0 mg/kg/injection, schedule: Q04DX003 (sc), vehicle: saline) 47 % of control.
`Cn1/c2cc/c1=C(\c1ccc(S(=O)(=O)O)cc1)c1ccc([n-]1)/C(c1ccc(S(=O)(=O)O)cc1)=c1/cc/c([nH]1)=C(\c1ccc(S(=O)(=O)O)cc1)c1ccc([n-]1)/C=2c1ccc(S(=O)(=O)O)cc1.O.O=S(=O)(O)C(F)(F)F.[Cu+2]`: the T/C was 54 % of control (dose: 150.0 mg/kg/injection, schedule: Q04DX003 (sc), vehicle: Klucel (hydroxypropylcellulose) (HPC)) and 94 % of control under setting [1].
Turning to `CC(=O)[C@]1(O)Cc2c(O)c3c(c(O)c2[C@@H](OC2CC(N)C(O)C(C)O2)C1)C(=O)c1c(O)cccc1C3=O` (some centres not stated), the T/C reads like this: (dose: 0.25 mg/kg/injection, schedule: Q01DX010 (sc), vehicle: saline) 167 % of control; (dose: 0.5 mg/kg/injection, schedule: Q01DX010 (sc), vehicle: saline) 68 % of control.
For `CN(CO)c1nc(N(C)CO)nc(N(C)CO)n1`, the T/C (dose: 12.5 mg/kg/injection, schedule: Q01DX010 (sc), vehicle: saline) was 157 % of control; the T/C (dose: 25.0 mg/kg/injection, schedule: Q01DX010 (sc), vehicle: saline) is 55 % of control; the T/C (dose: 50.0 mg/kg/injection, schedule: Q01DX010 (sc), vehicle: saline) is 4 % of control; the T/C (dose: 100.0 mg/kg/injection, schedule: Q01DX010 (sc), vehicle: saline) was -81 % of control; the T/C (dose: 100.0 mg/kg/injection, schedule: Q01DX010 (sc), vehicle: suspension in saline) is -100 % of control; the T/C (dose: 150.0 mg/kg/injection, schedule: Q04DX003 (sc), vehicle: saline) is -80 % of control and -77 % of control and -57 % of control. Further, the T/C is, setting by setting: (dose: 200.0 mg/kg/injection, schedule: Q01DX010 (sc), vehicle: suspension in saline) -100 % of control; (dose: 300.0 mg/kg/injection, schedule: Q04DX003 (sc), vehicle: saline) -85 % of control and -84 % of control; under setting [5], -87 % of control and -100 % of control.
With `CC1=C2CC(C)(C)/C=C\C(=O)/C(C)=C\C3=C[C@H](C)C[C@]3(O2)C1=O`, the T/C runs as follows: (dose: 12.5 mg/kg/injection, schedule: Q04DX003 (sc), vehicle: Klucel (hydroxypropylcellulose) (HPC)) 84 % of control; (dose: 25.0 mg/kg/injection, schedule: Q04DX003 (sc), vehicle: Klucel (hydroxypropylcellulose) (HPC)) 100 % of control; (dose: 50.0 mg/kg/injection, schedule: Q04DX003 (sc), vehicle: Klucel (hydroxypropylcellulose) (HPC)) 82 % of control.
Regarding `O=C(N/N=C\c1cc(Br)cc(Br)c1O)N/N=C/c1cc(Br)cc(Br)c1O`, the T/C by setting is: (dose: 400.0 mg/kg/injection, schedule: Q01DX010 (sc), vehicle: saline with Tween-80) 72 % of control; (dose: 800.0 mg/kg/injection, schedule: Q01DX010 (sc), vehicle: saline with Tween-80) 61 % of control.
For the compound `O=C1NCC(Br)C(=O)N1` (configuration not stated), the T/C under setting [2] is 100 % of control.
Take `CN(C)P(=O)(Oc1ccccc1)N(C)C`: the T/C was 97 % of control under setting [2]; 107 % of control under setting [3]; 113 % of control under setting [4]; 71 % of control (dose: 1200.0 mg/kg/injection, schedule: Q04DX003 (sc), vehicle: saline with Tween-80).
Regarding `Cc1ccc2c(ccc(CC(=S)[S-])[n+]2C)c1`, the T/C reads like this: (dose: 50.0 mg/kg/injection, schedule: Q01DX010 (sc), vehicle: Klucel (hydroxypropylcellulose) (HPC)) 57 % of control; (dose: 100.0 mg/kg/injection, schedule: Q01DX010 (sc), vehicle: Klucel (hydroxypropylcellulose) (HPC)) 80 % of control; (dose: 200.0 mg/kg/injection, schedule: Q01DX010 (sc), vehicle: Klucel (hydroxypropylcellulose) (HPC)) 28 % of control; (dose: 400.0 mg/kg/injection, schedule: Q01DX010 (sc), vehicle: Klucel (hydroxypropylcellulose) (HPC)) 107 % of control.
As to `Cc1cc(NCCN(C(C)C)C(C)C)nc(/N=C(\N)Nc2ccc(Cl)c(C(F)(F)F)c2)n1`, the T/C is 64 % of control (dose: 80.0 mg/kg/injection, schedule: Q04DX003 (sc), vehicle: Klucel (hydroxypropylcellulose) (HPC)); 62 % of control (dose: 160.0 mg/kg/injection, schedule: Q04DX003 (sc), vehicle: Klucel (hydroxypropylcellulose) (HPC)); 81 % of control (dose: 320.0 mg/kg/injection, schedule: Q04DX003 (sc), vehicle: Klucel (hydroxypropylcellulose) (HPC)).
As to `Nc1nc([Se])c2ncn(C3OC(CO)C(O)C3O)c2n1` (configuration not stated), the T/C is, setting by setting: (dose: 2.0 mg/kg/injection, schedule: Q01DX010 (sc), vehicle: saline) 85 % of control and 101 % of control; (dose: 6.66 mg/kg/injection, schedule: Q04DX003 (ip), vehicle: saline) 76 % of control; (dose: 6.66 mg/kg/injection, schedule: Q04DX003 (sc), vehicle: saline) 72 % of control; (dose: 8.0 mg/kg/injection, schedule: Q01DX010 (ip), vehicle: saline) 45 % of control; (dose: 13.33 mg/kg/injection, schedule: Q04DX003 (ip), vehicle: saline) 46 % of control; (dose: 26.65 mg/kg/injection, schedule: Q04DX003 (ip), vehicle: saline) 74 % of control. Further, the T/C (dose: 53.3 mg/kg/injection, schedule: Q04DX003 (ip), vehicle: saline) was 63 % of control and the T/C (dose: 53.33 mg/kg/injection, schedule: Q04DX003 (sc), vehicle: saline) was 89 % of control.
